Here are results for seven cell lines from the supplement of paper PMC10307832.

Holding throughout (assay): relative viability (nuclei count vs DMSO), 5 days (fraction); higher = more cells survive
Compound in assay [1]: COc1cc2ncn(-c3cc(OCc4ccccc4C(F)(F)F)c(C(N)=O)s3)c2cc1OC + COc1cc2c(Oc3ccc(NC(=O)C4(C(=O)Nc5ccc(F)cc5)CC4)cc3F)ccnc2cc1OCCCN1CCOCC1 [Foretinib] (partner 0.25 µM)
A digest of the protocol: (§1)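 Relative viability equals treated-well nuclei counts divided by vehicle-well nuclei counts. Counts came from 4× images of lung cancer cell lines grown in 1536-well plates for 5 days after pin-tool dosing on the day after seeding. Dosing used one drug alone or a fixed anchor-drug dose plus five library-drug doses (not always all listed) in √10 steps, and values are medians of duplicate plates.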

Compound in assay [2]: COc1cc2ncn(-c3cc(OCc4ccccc4C(F)(F)F)c(C(N)=O)s3)c2cc1OC + Cc1nc(NC(=O)N2CCC[C@H]2C(N)=O)sc1-c1ccnc(C(C)(C)C(F)(F)F)c1 [Alpelisib] (partner 2 µM)
The procedure, abridged:
as §1

Compound in assay [3]: COc1cc2ncn(-c3cc(OCc4ccccc4C(F)(F)F)c(C(N)=O)s3)c2cc1OC + Nc1nc2[nH]cc(CCc3ccc(C(=O)N[C@@H](CCC(=O)O)C(=O)O)cc3)c2c(=O)[nH]1 [Pemetrexed] (partner 0.2 µM)
The procedure, abridged: as §1

Compound in assay [4]: COc1cc2ncn(-c3cc(OCc4ccccc4C(F)(F)F)c(C(N)=O)s3)c2cc1OC + O=C(c1cc(Cc2n[nH]c(=O)c3ccccc23)ccc1F)N1CCN(C(=O)C2CC2)CC1 [Olaparib] (partner 8 µM)
The procedure, abridged: as §1

For NCI-H2023, the relative viability in assay [1] (first compound 0.05 µM) was 0.765; in assay [1] (first compound 0.1581 µM), 0.799; in assay [1] (first compound 0.5 µM), 0.725; in assay [1] (first compound 1.581 µM) it was 0.416; in assay [1] (first compound 5 µM), 0.0871; in assay [2] (first compound 0.05 µM), 0.547. Besides, the relative viability in assay [2] (first compound 0.1581 µM) is 0.634; in assay [2] (first compound 0.5 µM), 0.61; in assay [2] (first compound 1.581 µM), 0.0955; in assay [2] (first compound 5 µM) it was 0.0801; in assay [3] (first compound 0.05 µM) it was 0.202; in assay [3] (first compound 0.1581 µM), 0.2. In addition, the relative viability in assay [3] (first compound 0.5 µM) was found to be 0.177; in assay [3] (first compound 1.581 µM) it was 0.107; in assay [3] (first compound 5 µM), 0.114; in assay [4] (first compound 0.05 µM) it was 0.416; in assay [4] (first compound 0.1581 µM), 0.392; in assay [4] (first compound 0.5 µM) it was 0.16. Further, the relative viability came out at 0.0751 in assay [4] (first compound 1.581 µM) and 0.0692 in assay [4] (first compound 5 µM).
COR-L 105: the relative viability in assay [1] (first compound 0.05 µM) is 1.2; in assay [1] (first compound 0.1581 µM), 1.2; in assay [1] (first compound 0.5 µM) it was 1.17; in assay [1] (first compound 1.581 µM), 0.391; in assay [1] (first compound 5 µM), 0.302; in assay [2] (first compound 0.05 µM) it was 1.13. For the same cell line, the relative viability in assay [2] (first compound 0.1581 µM) turned out to be 0.913; in assay [2] (first compound 0.5 µM) it was 0.857; in assay [2] (first compound 1.581 µM), 0.34; in assay [2] (first compound 5 µM), 0.258; in assay [3] (first compound 0.05 µM), 0.924; in assay [3] (first compound 0.1581 µM) it was 1.24. Also, the relative viability in assay [3] (first compound 0.5 µM) worked out at 0.909; in assay [3] (first compound 1.581 µM), 0.409; in assay [3] (first compound 5 µM) it was 0.418; in assay [4] (first compound 0.05 µM), 0.709; in assay [4] (first compound 0.1581 µM), 0.687; in assay [4] (first compound 0.5 µM), 0.595. For the same cell line, the relative viability was 0.335 in assay [4] (first compound 1.581 µM) and 0.369 in assay [4] (first compound 5 µM).
Turning to NCI-H1734, the relative viability is 0.85 in assay [1] (first compound 0.05 µM); 1.06 in assay [1] (first compound 0.1581 µM); 0.56 in assay [1] (first compound 0.5 µM); 0.257 in assay [1] (first compound 1.581 µM); 0.204 in assay [1] (first compound 5 µM); 0.784 in assay [2] (first compound 0.05 µM). The relative viability in assay [2] (first compound 0.1581 µM) was determined as 0.721; in assay [2] (first compound 0.5 µM) it was 0.571; in assay [2] (first compound 1.581 µM), 0.334; in assay [2] (first compound 5 µM), 0.224; in assay [3] (first compound 0.05 µM) it was 0.401; in assay [3] (first compound 0.1581 µM), 0.386. Moreover, the relative viability in assay [3] (first compound 0.5 µM) worked out at 0.41; in assay [3] (first compound 1.581 µM), 0.25; in assay [3] (first compound 5 µM), 0.164; in assay [4] (first compound 0.05 µM), 0.235; in assay [4] (first compound 0.1581 µM), 0.646; in assay [4] (first compound 0.5 µM), 0.247. Further, the relative viability turned out to be 0.212 in assay [4] (first compound 1.581 µM) and 0.144 in assay [4] (first compound 5 µM).
NCI-H3122: the relative viability came to 0.976 in assay [1] (first compound 0.05 µM); 0.93 in assay [1] (first compound 0.1581 µM); 0.241 in assay [1] (first compound 0.5 µM); 0.123 in assay [1] (first compound 1.581 µM); 0.148 in assay [1] (first compound 5 µM); 0.842 in assay [2] (first compound 0.05 µM). The relative viability in assay [2] (first compound 0.1581 µM) came to 0.514; in assay [2] (first compound 0.5 µM), 0.203; in assay [2] (first compound 1.581 µM) it was 0.149; in assay [2] (first compound 5 µM) it was 0.197; in assay [3] (first compound 0.05 µM) it was 0.21; in assay [3] (first compound 0.1581 µM), 0.196. The relative viability in assay [3] (first compound 0.5 µM) came out at 0.16; in assay [3] (first compound 1.581 µM), 0.124; in assay [3] (first compound 5 µM), 0.11; in assay [4] (first compound 0.05 µM) it was 0.682; in assay [4] (first compound 0.1581 µM), 0.585; in assay [4] (first compound 0.5 µM), 0.149. Also, the relative viability stood at 0.141 in assay [4] (first compound 1.581 µM) and 0.146 in assay [4] (first compound 5 µM).
CAL-12T: the relative viability in assay [1] (first compound 0.05 µM) was 0.981; in assay [1] (first compound 0.1581 µM), 0.974; in assay [1] (first compound 0.5 µM) it was 0.907; in assay [1] (first compound 1.581 µM) it was 0.193; in assay [1] (first compound 5 µM), 0.216; in assay [2] (first compound 0.05 µM), 1.03. Besides, the relative viability in assay [2] (first compound 0.1581 µM) was determined as 0.973; in assay [2] (first compound 0.5 µM), 0.513; in assay [2] (first compound 1.581 µM), 0.188; in assay [2] (first compound 5 µM), 0.196; in assay [3] (first compound 0.05 µM), 0.706; in assay [3] (first compound 0.1581 µM), 1.19. In addition, the relative viability in assay [3] (first compound 0.5 µM) was 0.621; in assay [3] (first compound 1.581 µM) it was 0.212; in assay [3] (first compound 5 µM), 0.165; in assay [4] (first compound 0.05 µM) it was 0.563; in assay [4] (first compound 0.1581 µM), 0.676; in assay [4] (first compound 0.5 µM) it was 0.415. The relative viability was found to be 0.189 in assay [4] (first compound 1.581 µM) and 0.188 in assay [4] (first compound 5 µM).
As to HCC-78, the relative viability in assay [1] (first compound 0.05 µM) was 0.574; in assay [1] (first compound 0.1581 µM), 0.585; in assay [1] (first compound 0.5 µM) it was 0.469; in assay [1] (first compound 1.581 µM) it was 0.327; in assay [1] (first compound 5 µM) it was 0.379; in assay [2] (first compound 0.05 µM) it was 0.371. The relative viability in assay [2] (first compound 0.1581 µM) worked out at 0.402; in assay [2] (first compound 0.5 µM), 0.289; in assay [2] (first compound 1.581 µM) it was 0.206; in assay [2] (first compound 5 µM) it was 0.27; in assay [3] (first compound 0.05 µM), 0.967; in assay [3] (first compound 0.1581 µM) it was 0.903. Further, the relative viability in assay [3] (first compound 0.5 µM) amounted to 0.895; in assay [3] (first compound 1.581 µM), 0.939; in assay [3] (first compound 5 µM), 0.87; in assay [4] (first compound 0.05 µM) it was 0.939; in assay [4] (first compound 0.1581 µM), 0.927; in assay [4] (first compound 0.5 µM) it was 0.645. In addition, the relative viability was 0.601 in assay [4] (first compound 1.581 µM) and 0.468 in assay [4] (first compound 5 µM).
As to NCI-H2085, the relative viability in assay [1] (first compound 0.05 µM) is 0.931; in assay [1] (first compound 0.1581 µM), 1; in assay [1] (first compound 0.5 µM), 0.566; in assay [1] (first compound 1.581 µM) it was 0.294; in assay [1] (first compound 5 µM) it was 0.31; in assay [2] (first compound 0.05 µM), 1.01. Further, the relative viability in assay [2] (first compound 0.1581 µM) was 0.959; in assay [2] (first compound 0.5 µM), 0.75; in assay [2] (first compound 1.581 µM) it was 0.4; in assay [2] (first compound 5 µM), 0.386; in assay [3] (first compound 0.05 µM) it was 0.85; in assay [3] (first compound 0.1581 µM), 0.831. Moreover, the relative viability in assay [3] (first compound 0.5 µM) was 0.719; in assay [3] (first compound 1.581 µM) it was 0.33; in assay [3] (first compound 5 µM), 0.292; in assay [4] (first compound 0.05 µM), 0.658; in assay [4] (first compound 0.1581 µM) it was 0.721; in assay [4] (first compound 0.5 µM), 0.481. Moreover, the relative viability in assay [4] (first compound 1.581 µM) came to 0.367; in assay [4] (first compound 5 µM), 0.306.
